Legend:
[1] = biological target: T1, TLR7 (Homo sapiens, UniProt Q9NYK1); assay: TLR7 human PBMC cell-based assay (antagonist, GS-986 stimulated cytokine release); conditions: human PBMCs; TLR7 agonist GS-986 400 nM, 6 hours; cytokines (IL-6 and IFNα) in supernatant; read-out: TLR-7 EC50
T1 construct: Human peripheral blood mononuclear cells (PBMCs) consist of lymphocytes, monocytes and dendritic cells that express TLR7, TLR8 and TLR9; endogenous in cells; host or cells: cryopreserved human PBMCs from healthy donors
T1 sequence (Q9NYK1 27-1049): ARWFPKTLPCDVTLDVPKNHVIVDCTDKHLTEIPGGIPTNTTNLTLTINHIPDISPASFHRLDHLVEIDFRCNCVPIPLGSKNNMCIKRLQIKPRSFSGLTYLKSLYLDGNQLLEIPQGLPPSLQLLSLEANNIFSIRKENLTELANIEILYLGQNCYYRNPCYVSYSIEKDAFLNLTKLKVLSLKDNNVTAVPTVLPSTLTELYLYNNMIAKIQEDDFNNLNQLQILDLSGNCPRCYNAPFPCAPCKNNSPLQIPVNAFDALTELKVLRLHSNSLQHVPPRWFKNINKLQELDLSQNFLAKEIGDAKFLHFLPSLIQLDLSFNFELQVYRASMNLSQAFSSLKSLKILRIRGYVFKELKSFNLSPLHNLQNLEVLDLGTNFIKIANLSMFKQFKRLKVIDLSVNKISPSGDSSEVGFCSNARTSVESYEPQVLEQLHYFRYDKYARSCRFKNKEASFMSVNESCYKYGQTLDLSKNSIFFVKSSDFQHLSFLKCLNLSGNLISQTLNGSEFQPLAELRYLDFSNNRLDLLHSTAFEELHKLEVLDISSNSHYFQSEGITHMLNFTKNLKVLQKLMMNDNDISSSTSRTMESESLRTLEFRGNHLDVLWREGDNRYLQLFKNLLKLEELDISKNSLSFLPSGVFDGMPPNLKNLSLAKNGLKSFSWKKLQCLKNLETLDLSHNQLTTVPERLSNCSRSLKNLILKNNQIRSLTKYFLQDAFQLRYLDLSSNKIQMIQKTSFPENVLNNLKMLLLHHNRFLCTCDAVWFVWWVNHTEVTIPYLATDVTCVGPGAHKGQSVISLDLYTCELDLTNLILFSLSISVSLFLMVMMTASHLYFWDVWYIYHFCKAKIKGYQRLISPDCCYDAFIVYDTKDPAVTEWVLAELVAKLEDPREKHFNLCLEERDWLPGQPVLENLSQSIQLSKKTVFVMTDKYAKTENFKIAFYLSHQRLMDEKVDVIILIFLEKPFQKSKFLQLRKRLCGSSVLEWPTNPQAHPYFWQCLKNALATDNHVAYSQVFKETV
In short: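 EC50 derived by sigmoidal fitting of IL-6 and IFNα levels, quantified by electrochemiluminescence in supernatants of human PBMCs given 400 nM GS-986 for 6 h. Cells (100,000/well in RPMI-1640, 10% FBS) had received test antagonist 1 h beforehand, 10 doses in quadruplicate, at 37 °C.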

[2] = biological target: T2, TLR8 (Homo sapiens, UniProt Q9NR97); assay: TLR8 human PBMC cell-based assay (antagonist, Compound A stimulated cytokine release); conditions: human PBMCs; TLR8 agonist Compound A 800 nM, 6 hours; cytokines (TNFa and IL 12p40) in supernatant; read-out: TLR-8 EC50
T2 construct: Human peripheral blood mononuclear cells (PBMCs) consist of lymphocytes, monocytes and dendritic cells that express TLR7, TLR8 and TLR9; endogenous in cells; host or cells: cryopreserved human PBMCs from healthy donors
T2 sequence (Q9NR97 27-1041): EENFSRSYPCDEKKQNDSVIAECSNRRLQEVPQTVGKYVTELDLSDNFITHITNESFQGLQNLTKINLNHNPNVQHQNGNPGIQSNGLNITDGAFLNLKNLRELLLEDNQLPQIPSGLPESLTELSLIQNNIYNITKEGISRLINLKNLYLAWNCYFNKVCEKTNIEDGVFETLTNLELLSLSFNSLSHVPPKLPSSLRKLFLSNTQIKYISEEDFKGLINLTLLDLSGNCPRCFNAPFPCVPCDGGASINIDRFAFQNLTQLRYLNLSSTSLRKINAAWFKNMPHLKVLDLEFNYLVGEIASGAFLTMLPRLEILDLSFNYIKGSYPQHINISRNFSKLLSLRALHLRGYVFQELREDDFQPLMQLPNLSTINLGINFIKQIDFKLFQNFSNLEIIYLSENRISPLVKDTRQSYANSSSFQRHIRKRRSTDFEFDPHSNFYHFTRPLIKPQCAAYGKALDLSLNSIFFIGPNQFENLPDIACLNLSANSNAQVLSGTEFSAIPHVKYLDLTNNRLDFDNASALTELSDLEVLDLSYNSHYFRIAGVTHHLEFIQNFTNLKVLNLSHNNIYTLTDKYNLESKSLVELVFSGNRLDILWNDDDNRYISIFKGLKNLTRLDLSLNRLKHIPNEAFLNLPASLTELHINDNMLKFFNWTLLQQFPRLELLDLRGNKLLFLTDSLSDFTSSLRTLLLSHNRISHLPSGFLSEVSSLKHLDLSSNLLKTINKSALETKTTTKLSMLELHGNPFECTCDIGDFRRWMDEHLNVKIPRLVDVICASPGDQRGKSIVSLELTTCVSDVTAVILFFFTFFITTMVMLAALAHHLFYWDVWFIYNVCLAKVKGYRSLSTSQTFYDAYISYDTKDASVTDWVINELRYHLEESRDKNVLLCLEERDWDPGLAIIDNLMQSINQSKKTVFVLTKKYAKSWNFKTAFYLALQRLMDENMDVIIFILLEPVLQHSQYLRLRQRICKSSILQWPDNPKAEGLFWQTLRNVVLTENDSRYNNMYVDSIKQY
In short: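 Cryopreserved donor PBMCs (100,000/well, RPMI + 10% FBS) were preincubated 1 h with antagonist (10-point dose response, quadruplicate), then stimulated with Compound A (800 nM final) for 6 h at 37 °C. TNFa and IL-12p40 in supernatants were measured by electrochemiluminescence; sigmoidal fits gave EC50.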

| Structure (SMILES) | EC50 [1] | EC50 [2] |
| --- | --- | --- |
| CC(C)c1c(-c2ccc3nccn3c2)[nH]c2cc(C(=O)N3CCNCC3)sc12 [Example 67] | 6.3 nM | 131 nM |
| CC(C)c1c(-c2ccn3ccnc3c2)[nH]c2cc(C(=O)N3CCNCC3)sc12 [Example 68] | 822 nM | > 1000 nM |
| Cc1cc(-c2[nH]c3cc(C(=O)N4CCN(CCO)CC4)sc3c2C(C)C)cn2ncnc12 [Example 69] | 24.4 nM | 9.2 nM |
| Cc1cc(-c2[nH]c3cc(C4=NCC5(CCNCC5)O4)sc3c2C(C)C)cn2ncnc12 [Example 70] | 0.2 nM | 9.3 nM |
| Cc1cc(-c2[nH]c3cc(-c4nnc(C5CCC(N)CC5)o4)sc3c2C(C)C)cc(C)n1 (centres unmarked) [Example 71] | 22.3 nM | 23.6 nM |
| CN[C@@H]1CCN(C(=O)c2cc3[nH]c(-c4cc(C)c5ncnn5c4)c(C(C)C)c3s2)C1 [Example 72] | 1.9 nM | 1.1 nM |
| CN[C@H]1CCN(C(=O)c2cc3[nH]c(-c4cc(C)c5ncnn5c4)c(C(C)C)c3s2)C1 [Example 73] | 4.9 nM | 1.7 nM |
| Cc1cc(-c2[nH]c3cc(C(=O)N4C[C@@H]5[C@@H](N)[C@@H]5C4)sc3c2C(C)C)cn2ncnc12 [Example 74] | 10.5 nM | 10.5 nM |
| Cc1cc(-c2[nH]c3cc(C(=O)N(C)[C@H]4[C@@H]5CNC[C@@H]54)sc3c2C(C)C)cn2ncnc12 [Example 75] | 1.6 nM | 14 nM |
| Cc1cc(-c2[nH]c3cc(C(=O)N(C)[C@@H]4CCNC[C@H]4F)sc3c2C(C)C)cn2ncnc12 [Example 76] | 0.6 nM | 6.5 nM |
| Cc1cc(-c2[nH]c3cc(C(=O)N4C[C@@H](N)C[C@@H](C(F)(F)F)C4)sc3c2C(C)C)cn2ncnc12 [Example 77] | 9 nM | 40.3 nM |
| Cc1cc(-c2[nH]c3cc(C(=O)N(C)[C@H]4CCNC[C@@H]4F)sc3c2C(C)C)cn2ncnc12 [Example 78] | 0.4 nM | 8.6 nM |
| Cc1cc(-c2[nH]c3cc(C(=O)N(C)[C@@H]4CCNC[C@@H]4F)sc3c2C(C)C)cn2ncnc12 [Example 79] | 0.3 nM | 9.1 nM |
| Cc1cc(-c2[nH]c3cc(C(=O)N(C)[C@H]4CCNC[C@H]4F)sc3c2C(C)C)cn2ncnc12 [Example 80] | 0.5 nM | 9.5 nM |
| Cc1cc(-c2[nH]c3cc(C(=O)N(C)[C@H]4CCNCC4(F)F)sc3c2C(C)C)cn2ncnc12 [Example 81] | 10.3 nM | 91 nM |
| Cc1cc(-c2[nH]c3cc(C(=O)N(C)[C@@H]4CCN(C5CCC5)C[C@@H]4F)sc3c2C(C)C)cn2ncnc12 [Example 83] | 17.8 nM | 17.7 nM |
| Cc1cc(-c2[nH]c3cc(C(=O)N(C4CCC4)C4CCNCC4)sc3c2C(C)C)cn2ncnc12 [Example 84] | 1.1 nM | 25.1 nM |
| Cc1cc(-c2[nH]c3cc(C(=O)N4CCNC(C)(C)C4)sc3c2C(C)C)cn2ncnc12 [Example 85] | 1.3 nM | 0.6 nM |
| Cc1c(-c2[nH]c3cc(C(=O)N4CCNC(C)(C)C4)sc3c2C(C)C)cn2ncnc2c1C [Example 86] | 1 nM | 0.3 nM |
